# Measured values reported in publication PMC12752606, “METTL10‐Mediated PIAS3 Methylation Links Purine Metabolism to Gastric Cancer Progression” (Advanced Science, 2025).
# Tests used:
# ICR mice = test: Acute toxicity at 125 mg/kg, 7-day observation and histopathology; format: in vivo
# Method: For the acute toxic study, 8‐week‐old ICR mice (n = 6 per group) were administered a single intraperitoneal injection of LZQ‐02‐023‐01 at escalating doses. A vehicle‐treated group served as control. Survival was monitored continuously for 24 h postadministration. Additionally, another cohort of ICR mice (n = 5 per group) received a single intraperitoneal dose of LZQ‐02‐023‐01 at 125 mg/kg and were subsequently monitored daily for 7 days for clinical signs of toxicity, behavioral changes, body weight fluctuations, and mortality. At the conclusion of the observation period, animals were euthanized and subjected to a comprehensive gross necropsy. Major organs, including the liver, kidney, heart, lung, and spleen, were harvested for histopathological examination. For the chronic toxic study, 8‐week‐old ICR mice (n = 5 per group) received daily intraperitoneal injections of LZQ‐02‐023‐01 at a therapeutic dose of 40 mg/kg for 14 consecutive days. A vehicle‐treated group was included as a control. Throughout the treatment period, animals were monitored daily for clinical signs of toxicity and weighed every 2 days. At study termination, blood samples were collected for hematological and biochemical analyses. […]
# [1] = tested on: METTL10 protein levels in MKN45 and AGS cells; test: Immunoblotting of METTL10 protein levels in treated GC cells; format: cell-based; settings: 20 µM, not rescued by MG132
# Method: Protein extraction from tissues or cells was performed by lysis buffer (20 mM Tris‐HCl (pH 7.5), 150 mM NaCl, 1 mM EDTA, 1 mM EGTA, 2.5 mM sodium pyrophosphate, 1 mM β‐glycerolphosphate, 1% Triton X‐100) supplemented with 1% phenylmethylsulfonyl fluoride (PMSF; Solarbio, P0100) and protease inhibitor cocktail (Apexbio, K1007) and lysed at 4 °C for 60 min, followed by centrifugation at 12000 g for 15 min at 4 °C. For Immunoblotting, the protein concentration was determined using the Pierce BCA Protein Assay Kit (Thermo Fisher Scientific, A55864). The protein samples were denatured by boiling in SDS‐PAGE loading buffer. For immunoprecipitation, antibodies were incubated with Dynabeads Protein G (Thermo, 10004D) at 4 °C for 4 h. The supernatant was then incubated with magnetic beads conjugated with antibodies or anti‐FLAG‐M2 magnetic beads (Sigma–Aldrich, M8823) at 4 °C overnight. Following incubation, the magnetic beads were washed three times with lysis buffer and then boiled in SDS‐PAGE loading buffer. The proteins were separated by sodium dodecyl sulfate polyacrylamide gel electrophoresis (SDS‐PAGE) with One‐Step PAGE Gel Fast Preparation Kit (Vazyme), and then transferred to the PVDF Membrane (Bio‐Rad). After blocking with a protein‐free rapid blocking buffer (Epizyme, PS108P) for 15 min, the membranes were incubated with primary antibodies at 4 °C overnight. […]
structure (smiles),measurement,setting,value
"Cc1ccc(Nc2ncc3c(n2)N(C)C(=O)N(c2cccc(N)c2)C3)cn1 [LZQ-02-023-01, Three‐(3‐aminophenyl)‐1‐methyl‐7‐((6‐methylpyridin‐3‐yl)amino)‐3,4‐dihydropyrimido [4,5‐d] pyrimidin‐2 (1H)‐one]",Signs of overt toxicity,ICR mice; 7 days,did not observe any signs of overt toxicity
same,Histopathological analysis of major organs,ICR mice; end of 7-day period,no apparent tissue damage
same,METTL10 protein levels,[1],significant reduction
